Experimental data: patent US20100099561A1, “HETEROBICYCLIC ALKYLTHIO-BRIDGED ISOXAZOLINES” (E.I. DU PONT DE NEMOURS AND COMPANY, priority 2008, published 2010)

Key:
Assay type in all cases: in vivo
corn (Zea mays) [1] = assay: Test A postemergence, corn; details: 0 to 100 scale (0 no effect, 100 complete control)
Outline: (§1)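 Scores reflect visual plant injury on a 0 (no effect) to 100 (complete control) scale, assessed about ten days after application in the greenhouse. Compounds were delivered in a non-phytotoxic solvent blend with surfactant, either preemergence to soil or postemergence at one- to two-leaf stage.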

[2] = system: pigweed (Amaranthus retroflexus); assay: Test A postemergence, pigweed; details: 0 to 100 scale (0 no effect, 100 complete control)
Outline: as §1

[3] = system: giant foxtail (Setaria faberi); assay: Test A preemergence, giant foxtail; details: 0 to 100 scale (0 no effect, 100 complete control)
Outline: as §1

[4] = system: Surinam grass (Brachiaria decumbens); assay: Test B preemergence, Surinam grass; details: Table B, preemergence; visual rating on a 0 to 100 scale (0 no effect, 100 complete control), 13 to 15 days after treatment; application rate of this section not shown
Description: (§2) Seeds of plant species selected from blackgrass (Alopecurus myosuroides), downy bromegrass (Bromus tectorum), green foxtail (Setaria viridis), Italian ryegrass (Lolium multiflorum), wheat (Triticum aestivum), wild oat (Avena fatua), catchweed bedstraw (Galium aparine), bermudagrass (Cynodon dactylon), Surinam grass (Brachiaria decumbens), cocklebur (Xanthium strumarium), corn (Zea mays), large crabgrass (Digitaria sanguinalis), woolly cupgrass (Eriochloa villosa), giant foxtail (Setaria faberii), goosegrass (Eleusine indica), johnsongrass (Sorghum halepense), kochia (Kochia scoparia), lambsquarters (Chenopodium album), morningglory (Ipomoea coccinea), nightshade (eastern black nightshade, Solanum ptycanthum), yellow nutsedge (Cyperus esculentus), pigweed (Amaranthus retroflexus), ragweed (common ragweed, Ambrosia elatior), soybean (Glycine max), sunflower (common oilseed sunflower, Helianthus annuus), Russian thistle (Salsola kali), and velvetleaf (Abutilon theophrasti) were planted into a blend of loam soil and sand and treated preemergence with test compounds formulated in a non-phytotoxic solvent mixture which included a surfactant. Treated plants and controls were maintained in a greenhouse for 13 to 15 days, after which time all species were compared to controls and visually evaluated. Plant response ratings, summarized in Table B, are based on a scale of 0 to 100 where 0 is no effect and 100 is complete control. A dash (-) response means no test result.

[5] = system: velvetleaf (Abutilon theophrasti); assay: Test A postemergence, velvetleaf; details: 0 to 100 scale (0 no effect, 100 complete control)
Outline: as §1

soybean (Glycine max) = assay: Test B preemergence, soybean; details: Table B, preemergence; visual rating on a 0 to 100 scale (0 no effect, 100 complete control), 13 to 15 days after treatment; application rate of this section not shown
Description: as §2

[6] = system: Italian ryegrass (Lolium multiflorum); assay: Test B preemergence, Italian ryegrass; details: Table B, preemergence; visual rating on a 0 to 100 scale (0 no effect, 100 complete control), 13 to 15 days after treatment; application rate of this section not shown
Description: as §2

[7] = system: morningglory (Ipomoea spp.); assay: Test A preemergence, morningglory; details: 0 to 100 scale (0 no effect, 100 complete control)
Outline: as §1

[8] = system: velvetleaf (Abutilon theophrasti); assay: Test B preemergence, velvetleaf; details: Table B, preemergence; visual rating on a 0 to 100 scale (0 no effect, 100 complete control), 13 to 15 days after treatment; application rate of this section not shown
Description: as §2

[9] = system: umbrella sedge (Cyperus difformis); assay: Test B flooded paddy test, umbrella sedge; details: Flood, scale 0 to 100
Outline: (§3)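 Rice, umbrella sedge, ducksalad and barnyardgrass at 2-leaf stage; pots flooded to 3 cm, compounds applied into paddy water, depth held throughout. Greenhouse 13 to 15 days, then visual rating vs untreated controls on 0–100 scale (0 no effect, 100 complete control); dash means no test result.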

[10] = system: wheat (Triticum aestivum); assay: Test B preemergence, wheat; details: Table B, preemergence; visual rating on a 0 to 100 scale (0 no effect, 100 complete control), 13 to 15 days after treatment; application rate of this section not shown
Description: as §2

[11] = system: large crabgrass (Digitaria sanguinalis); assay: Test A preemergence, large crabgrass; details: 0 to 100 scale (0 no effect, 100 complete control)
Outline: as §1

[12] = system: velvetleaf (Abutilon theophrasti); assay: Test A preemergence, velvetleaf; details: 0 to 100 scale (0 no effect, 100 complete control)
Outline: as §1

[13] = system: giant foxtail (Setaria faberi); assay: Test A postemergence, giant foxtail; details: 0 to 100 scale (0 no effect, 100 complete control)
Outline: as §1

[14] = system: pigweed (Amaranthus retroflexus); assay: Test A preemergence, pigweed; details: 0 to 100 scale (0 no effect, 100 complete control)
Outline: as §1

[15] = system: sunflower (common oilseed sunflower, Helianthus annuus); assay: Test B preemergence, sunflower; details: Table B, preemergence; visual rating on a 0 to 100 scale (0 no effect, 100 complete control), 13 to 15 days after treatment; application rate of this section not shown
Description: as §2

[16] = system: ducksalad (Heteranthera limosa); assay: Test B flooded paddy test, ducksalad; details: Flood, scale 0 to 100
Outline: as §3

[17] = system: wheat (Triticum aestivum); assay: Test A preemergence, wheat; details: 0 to 100 scale (0 no effect, 100 complete control)
Outline: as §1

[18] = system: morningglory (Ipomoea spp.); assay: Test A postemergence, morningglory; details: 0 to 100 scale (0 no effect, 100 complete control)
Outline: as §1

[19] = system: barnyardgrass (Echinochloa crus-galli); assay: Test A postemergence, barnyardgrass; details: 0 to 100 scale (0 no effect, 100 complete control)
Outline: as §1

corn (Zea mays) [20] = assay: Test A preemergence, corn; details: 0 to 100 scale (0 no effect, 100 complete control)
Outline: as §1

[21] = system: barnyardgrass (Echinochloa crus-galli); assay: Test A preemergence, barnyardgrass; details: 0 to 100 scale (0 no effect, 100 complete control)
Outline: as §1

[22] = system: barnyardgrass (Echinochloa crus-galli); assay: Test B flooded paddy test, barnyardgrass; details: Flood
Outline: as §3

[23] = system: large crabgrass (Digitaria sanguinalis); assay: Test A postemergence, large crabgrass; details: 0 to 100 scale (0 no effect, 100 complete control)
Outline: as §1

[24] = system: wheat (Triticum aestivum); assay: Test A postemergence, wheat; details: 0 to 100 scale (0 no effect, 100 complete control)
Outline: as §1

rice (Oryza sativa) = assay: Test B flooded paddy test, rice; details: Flood, scale 0 to 100
Outline: as §3

[25] = 250 g ai/ha, scale 0 to 100 (0 no effect, 100 complete control)

Cn1c(=O)c(CS(=O)(=O)C2=NOC(C)(C)C2)c(C(F)(F)F)c2ccccc21 [Compound 1, 3-[[(4,5-dihydro-5,5-dimethyl-3-isoxazolyl)sulfonyl]methyl]-1-methyl-4-(trifluoromethyl)-2(1H)-quinolinone]
Plant response rating, Corn (corn (Zea mays) [1]; 125 g ai/ha): 0
Plant response rating, Corn (corn (Zea mays) [1]; 500 g ai/ha): 0
Plant response rating, Pigweed ([2]; 125 g ai/ha): 0
Plant response rating, Pigweed ([2]; 500 g ai/ha): 50
Plant response rating, Foxtail, Giant ([3]; 125 g ai/ha): 30
Plant response rating, Foxtail, Giant ([3]; 500 g ai/ha): 90
Plant response rating, Surinam Grass [4]: 0
Plant response rating, Velvetleaf ([5]; 125 g ai/ha): 0
Plant response rating, Velvetleaf ([5]; 500 g ai/ha): 20
Plant response rating, Soybean (soybean (Glycine max)): 0
Plant response rating, Ryegrass, Italian [6]: 0
Plant response rating, Morningglory ([7]; 125 g ai/ha): 0
Plant response rating, Morningglory ([7]; 500 g ai/ha): 0
Plant response rating, Velvetleaf [8]: 0
Plant response rating, Sedge, Umbrella ([9]; 31 g ai/ha): 0
Plant response rating, Sedge, Umbrella ([9]; 62 g ai/ha): 0
Plant response rating, Sedge, Umbrella ([9]; 125 g ai/ha): 0
Plant response rating, Sedge, Umbrella ([9]; 250 g ai/ha): 0
Plant response rating, Wheat [10]: 0
Plant response rating, Crabgrass, Large ([11]; 125 g ai/ha): 0
Plant response rating, Crabgrass, Large ([11]; 500 g ai/ha): 50
Plant response rating, Velvetleaf ([12]; 125 g ai/ha): 0
Plant response rating, Velvetleaf ([12]; 500 g ai/ha): 0
Plant response rating, Foxtail, Giant ([13]; 125 g ai/ha): 20
Plant response rating, Foxtail, Giant ([13]; 500 g ai/ha): 80
Plant response rating, Pigweed ([14]; 125 g ai/ha): 0
Plant response rating, Pigweed ([14]; 500 g ai/ha): 60
Plant response rating, Sunflower [15]: 0
Plant response rating, Ducksalad ([16]; 31 g ai/ha): 0
Plant response rating, Ducksalad ([16]; 62 g ai/ha): 0
Plant response rating, Ducksalad ([16]; 125 g ai/ha): 0
Plant response rating, Ducksalad ([16]; 250 g ai/ha): 0
Plant response rating, Wheat ([17]; 125 g ai/ha): 0
Plant response rating, Wheat ([17]; 500 g ai/ha): 0
Plant response rating, Morningglory ([18]; 125 g ai/ha): 0
Plant response rating, Morningglory ([18]; 500 g ai/ha): 0
Plant response rating, Barnyardgrass ([19]; 125 g ai/ha): 0
Plant response rating, Barnyardgrass ([19]; 500 g ai/ha): 80
Plant response rating, Corn (corn (Zea mays) [20]; 125 g ai/ha): 0
Plant response rating, Barnyardgrass ([21]; 125 g ai/ha): 0
Plant response rating, Barnyardgrass ([21]; 500 g ai/ha): 80
Plant response rating, Barnyardgrass ([22]; 31 g ai/ha, scale 0 to 100): 20
Plant response rating, Barnyardgrass ([22]; 62 g ai/ha, scale 0 to 100): 20
Plant response rating, Barnyardgrass ([22]; 125 g ai/ha, scale 0 to 100): 20
Plant response rating, Barnyardgrass [22, 25]: 20
Plant response rating, Crabgrass, Large ([23]; 125 g ai/ha): 10
Plant response rating, Crabgrass, Large ([23]; 500 g ai/ha): 70
Plant response rating, Wheat ([24]; 125 g ai/ha): 0
Plant response rating, Wheat ([24]; 500 g ai/ha): 0
Plant response rating, Rice (rice (Oryza sativa); 31 g ai/ha): 0
Plant response rating, Rice (rice (Oryza sativa); 62 g ai/ha): 0
Plant response rating, Rice (rice (Oryza sativa); 125 g ai/ha): 0
Plant response rating, Rice (rice (Oryza sativa); 250 g ai/ha): 20

CC1(C)CC(S(=O)(=O)Cc2c(C(F)(F)F)nc3ccon3c2=O)=NO1 [Compound 42]
Plant response rating, Corn (corn (Zea mays) [1]; 125 g ai/ha): 0
Plant response rating, Corn (corn (Zea mays) [1]; 500 g ai/ha): 0
Plant response rating, Pigweed ([2]; 125 g ai/ha): 0
Plant response rating, Pigweed ([2]; 500 g ai/ha): 10
Plant response rating, Foxtail, Giant ([3]; 125 g ai/ha): 60
Plant response rating, Foxtail, Giant ([3]; 500 g ai/ha): 90
Plant response rating, Velvetleaf ([5]; 125 g ai/ha): 0
Plant response rating, Velvetleaf ([5]; 500 g ai/ha): 0
Plant response rating, Morningglory ([7]; 125 g ai/ha): 0
Plant response rating, Morningglory ([7]; 500 g ai/ha): 0
Plant response rating, Sedge, Umbrella ([9]; 31 g ai/ha): 0
Plant response rating, Sedge, Umbrella ([9]; 62 g ai/ha): 0
Plant response rating, Sedge, Umbrella ([9]; 125 g ai/ha): 0
Plant response rating, Sedge, Umbrella ([9]; 250 g ai/ha): 0
Plant response rating, Crabgrass, Large ([11]; 125 g ai/ha): 50
Plant response rating, Crabgrass, Large ([11]; 500 g ai/ha): 80
Plant response rating, Velvetleaf ([12]; 125 g ai/ha): 0
Plant response rating, Velvetleaf ([12]; 500 g ai/ha): 0
Plant response rating, Foxtail, Giant ([13]; 125 g ai/ha): 60
Plant response rating, Foxtail, Giant ([13]; 500 g ai/ha): 80
Plant response rating, Pigweed ([14]; 125 g ai/ha): 0
Plant response rating, Pigweed ([14]; 500 g ai/ha): 30
Plant response rating, Ducksalad ([16]; 31 g ai/ha): 0
Plant response rating, Ducksalad ([16]; 62 g ai/ha): 0
Plant response rating, Ducksalad ([16]; 125 g ai/ha): 0
Plant response rating, Ducksalad ([16]; 250 g ai/ha): 0
Plant response rating, Wheat ([17]; 125 g ai/ha): 0
Plant response rating, Wheat ([17]; 500 g ai/ha): 0
Plant response rating, Morningglory ([18]; 125 g ai/ha): 0
Plant response rating, Morningglory ([18]; 500 g ai/ha): 0
Plant response rating, Barnyardgrass ([19]; 125 g ai/ha): 70
Plant response rating, Barnyardgrass ([19]; 500 g ai/ha): 80
Plant response rating, Corn (corn (Zea mays) [20]; 125 g ai/ha): 0
Plant response rating, Corn (corn (Zea mays) [20]; 500 g ai/ha): 0
Plant response rating, Barnyardgrass ([21]; 125 g ai/ha): 30
Plant response rating, Barnyardgrass ([21]; 500 g ai/ha): 80
Plant response rating, Barnyardgrass ([22]; 31 g ai/ha, scale 0 to 100): 0
Plant response rating, Barnyardgrass ([22]; 62 g ai/ha, scale 0 to 100): 0
Plant response rating, Barnyardgrass ([22]; 125 g ai/ha, scale 0 to 100): 0
Plant response rating, Barnyardgrass [22, 25]: 0
Plant response rating, Crabgrass, Large ([23]; 125 g ai/ha): 50
Plant response rating, Crabgrass, Large ([23]; 500 g ai/ha): 70
Plant response rating, Wheat ([24]; 125 g ai/ha): 0
Plant response rating, Wheat ([24]; 500 g ai/ha): 20
Plant response rating, Rice (rice (Oryza sativa); 31 g ai/ha): 0
Plant response rating, Rice (rice (Oryza sativa); 62 g ai/ha): 0
Plant response rating, Rice (rice (Oryza sativa); 125 g ai/ha): 0
Plant response rating, Rice (rice (Oryza sativa); 250 g ai/ha): 0
